System: H1975 NSCLC s.c. tumor
Test: Efficacy study in the H1975 s.c. tumor model (160 mg/kg q2d)
Assay type: in vivo, nude mice
Conditions: 160 mg/kg orally q2d, 3 wk
Procedure: H1975 NSCLC cells (5×10^6) were implanted s.c. into nude mice. Treatment with Compound-15 (160 mg/kg, orally, q2d) started when tumors reached an average volume of 160 mm^3.

Compound: CN(C)c1cc2c(cc1Sc1nc3c(N)nccc3n1CCNCC(C)(C)C)OCO2 [Compound 15, 2-(6-(dimethylamino)benzo[d][1,3]dioxol-5-ylthio)-1-(2-(neopentylamino)ethyl)-1H-imidazo[4,5-c]pyridin-4-amine]
- T/C: 15.4%
